The results in this text go back to publication PMC6446070, “Discovery of novel isoflavone derivatives as AChE/BuChE dual-targeted inhibitors: synthesis, biological evaluation and molecular modelling” (Journal of Enzyme Inhibition and Medicinal Chemistry, 2017).

Where two headings read alike, the source gives them in different places.

The target in one experiment is T1, AChE (Rattus norvegicus, UniProt P37136).
T1 construct: AChE (0.5 U/mg) was extracted from rat cortex; from tissue; host or cells: rat cortex
Briefly: biochemical. Conditions: for inhibition at 50 µM: read-out: Inhibition % at 50 μM AChE. As to the method: (§1) To measure in vitro AChE/BuChE activity, modified Ellman's method[27–30] was performed using a 96-well plate reader (BioTek ELx808). AChE (0.5 U/mg) was extracted from rat cortex while BuChE (3.4 U/mg) was obtained from human plasma. Each well contained 50 μl potassium phosphate buffer (KH2PO4/K2HPO4, 0.1 M, pH 8.0), 25 μl test compounds and 25 μl enzyme. […] They were pre-incubated for 60 min at 37 °C, and then 125 μl 5,5′-dithiobis-2-nitrobenzoic acid (DNTB, 3 mM in buffer) was added. […] A control experiment was performed under the same condition without any inhibitor and the blank contained buffer, water, DTNB and substrate. The described method was also performed for BuChE bioassay.

Another experiment concerns the target T2, BuChE (Homo sapiens, UniProt P06276).
T2 construct: BuChE (3.4 U/mg) was obtained from human plasma; from tissue; host or cells: human plasma
The experiment in a line: biochemical. Conditions: for inhibition at 50 µM: read-out: Inhibition % at 50 μM BuChE. The protocol:
as §1

Where [1] appears, read: 50 μM compound, AChE extracted from rat cortex, pre-incubated 60 min at 37 °C.
Setting [2] is: 50 μM compound, BuChE from human plasma, pre-incubated 60 min at 37 °C.
Setting [3] is: BuChE from human plasma, read-out: IC50 (μM) BuChE.

T1 sequence (P37136 32-614): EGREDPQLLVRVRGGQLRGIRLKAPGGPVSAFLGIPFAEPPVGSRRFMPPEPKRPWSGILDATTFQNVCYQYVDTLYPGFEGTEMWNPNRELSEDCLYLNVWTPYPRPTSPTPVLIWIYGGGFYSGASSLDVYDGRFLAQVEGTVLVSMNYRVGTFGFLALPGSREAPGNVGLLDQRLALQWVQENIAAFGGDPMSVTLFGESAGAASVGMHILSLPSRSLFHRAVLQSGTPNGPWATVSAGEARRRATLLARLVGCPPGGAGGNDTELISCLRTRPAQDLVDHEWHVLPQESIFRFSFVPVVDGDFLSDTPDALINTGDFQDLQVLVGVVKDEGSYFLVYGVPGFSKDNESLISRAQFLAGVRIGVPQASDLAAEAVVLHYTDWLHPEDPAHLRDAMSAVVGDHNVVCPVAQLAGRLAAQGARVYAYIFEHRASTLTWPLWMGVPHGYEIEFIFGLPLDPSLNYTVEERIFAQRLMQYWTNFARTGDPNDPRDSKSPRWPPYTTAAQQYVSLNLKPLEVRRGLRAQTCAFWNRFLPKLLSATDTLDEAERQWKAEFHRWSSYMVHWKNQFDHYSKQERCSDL
T2 sequence (P06276 29-602): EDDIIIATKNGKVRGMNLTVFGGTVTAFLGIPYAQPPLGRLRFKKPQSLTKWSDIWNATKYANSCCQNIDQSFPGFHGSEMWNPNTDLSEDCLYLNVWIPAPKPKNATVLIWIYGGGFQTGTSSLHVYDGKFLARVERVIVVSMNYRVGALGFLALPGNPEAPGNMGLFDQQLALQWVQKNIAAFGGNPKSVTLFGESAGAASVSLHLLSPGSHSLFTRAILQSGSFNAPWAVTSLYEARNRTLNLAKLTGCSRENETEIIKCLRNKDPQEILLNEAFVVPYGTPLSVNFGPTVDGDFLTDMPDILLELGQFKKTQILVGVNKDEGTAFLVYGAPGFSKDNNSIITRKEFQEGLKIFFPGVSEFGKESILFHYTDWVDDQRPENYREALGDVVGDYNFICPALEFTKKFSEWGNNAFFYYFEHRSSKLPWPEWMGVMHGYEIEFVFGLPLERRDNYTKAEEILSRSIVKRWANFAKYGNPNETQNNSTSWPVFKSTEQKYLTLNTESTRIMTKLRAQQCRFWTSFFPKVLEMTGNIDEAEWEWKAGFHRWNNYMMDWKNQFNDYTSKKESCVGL

For orientation: inhibition means the relative decrease from the control value, in per cent. Take `COc1ccc(-c2coc3cc(OCCCCNCCc4c[nH]c5ccc(OC)cc45)ccc3c2=O)cc1` [compound 9, 7-(4((2-(5-Methoxy-1H-indol-3-yl)ethyl)amino)butoxy)-3-(4-methoxyphenyl)-4H-chromen-4-one]: the values for the inhibition at 50 µM on AChE (setting [1]) and at BuChE (setting [2]) were 0.72% and 37.9%, respectively.

In general, IC50 refers to the point on the concentration scale where inhibition reaches its midpoint. Regarding `O=c1c(-c2ccc(OCCN3CCCCC3)cc2)coc2cc(OCCN3CCCCC3)ccc12` [compound 16, 7-(2-(Piperidin-1-yl)ethoxy)-3-(4-(2-(piperidin-1-yl)ethoxy)phenyl)-4H-chrom en-4-one], the inhibition at 50 µM at AChE (setting [1]) was 100%; at BuChE (setting [2]), 99.7%. Also, the IC50 against AChE (AChE extracted from rat cortex) came to 4.6 µM; on BuChE (setting [3]), 5.92 µM.

In the case of `O=c1c(-c2ccc(O)cc2)coc2cc(OCCN3CCCCC3)ccc12` [compound 14, 3-(4-Hydroxyphenyl)-7-(2-(piperidin-1-yl)ethoxy)-4H-chromen-4-one], the inhibition at 50 µM on AChE (setting [1]) amounted to 79.4%; at BuChE (setting [2]) it was 99.9%. In addition, the values for the IC50 against AChE (AChE extracted from rat cortex) and on BuChE (setting [3]) were 9.75 µM and 7.66 µM, respectively.

On to `COc1ccc(-c2coc3cc(OCCC(=O)N4CCCCC4)ccc3c2=O)cc1` [compound 18, 3-(4-Methoxyphenyl)-7-(3-oxo-3-(piperidin-1-yl)propoxy)-4H-chromen-4-one], for which the inhibition at 50 µM at AChE (setting [1]) was -2.36%; on BuChE (setting [2]) it was 5.59%.

Consider `COc1ccc(-c2coc3cc(OCCN4CCCCC4)cc(O)c3c2=O)cc1` [compound 1, 5-Hydroxy-3-(4-mehtoxyphenyl)-7-(2-(piperidin-1-yl)ethoxy)-4H-chromen-4-one], for which the “Inhibition % at 50 μM AChE” value at AChE (setting [1]) came to 71.10%. In addition, the IC50 turned out to be 10.3 µM on AChE (AChE extracted from rat cortex) and 4.12 µM on BuChE (setting [3]). Also, on BuChE (setting [2]), the “Inhibition % at 50 μM BuChE” value was found to be 95.74%.

In the case of `COc1ccc(-c2coc3cc(OCCN(C)Cc4ccccc4)ccc3c2=O)cc1` [compound 10, 7-(2-(Benzyl(methyl)amino)ethoxy)-3-(4-methoxyphenyl)-4H-chromen-4-one], the inhibition at 50 µM on AChE (setting [1]) turned out to be 3.34%; at BuChE (setting [2]), 2.72%.

Take `COc1ccc(-c2coc3cc(OCCN(Cc4ccccc4)Cc4ccccc4)ccc3c2=O)cc1` [compound 11, 7-(2-(Dibenzylamino)ethoxy)-3-(4-methoxyphenyl)-4H-chromen-4-one]: the values for the inhibition at 50 µM on AChE (setting [1]) and at BuChE (setting [2]) were -6.27% and -18.5%, respectively.

Regarding `O=c1c(-c2ccc(O)cc2)coc2cc(OCCN3CCCC3)ccc12` [compound 15, 3-(4-Hyroxyphenyl)-7-(2-(pyrrolidin-1-yl)ethoxy)-4H-chromen-4-one], on AChE (setting [1]), the “Inhibition % at 50 μM AChE” value amounted to 75.22%. Besides, the “Inhibition % at 50 μM BuChE” value on BuChE (setting [2]) worked out at 99.88%. Also, on BuChE (setting [3]), the IC50 worked out at 7.19 µM.

In the case of `COc1ccc(-c2coc3cc(OCCN4CCCCC4C)ccc3c2=O)cc1` (stereo not shown) [G], the IC50 against AChE (AChE extracted from rat cortex) stood at 1.47 µM; on BuChE (setting [3]) it was 3.37 µM.

With `COc1ccc(-c2coc3cc(OCCCN4CCCCC4)ccc3c2=O)cc1` [compound 2, 3-(4-Methoxyphenyl)-7-(3-(piperidin-1-yl)propoxy)-4H-chromen-4-one], the results for the inhibition at 50 µM at AChE (setting [1]) and at BuChE (setting [2]) were 28.3% and 97%, respectively. On BuChE (setting [3]), the IC50 was found to be 23.2 µM.

For the compound `CCN(C)CCCOc1ccc2c(=O)c(-c3ccc(OC)cc3)coc2c1` [compound 5, 7-(3-(Ethyl(methyl)amino)propoxy)-3-(4-methoxyphenyl)-4H-chromen-4-one], the inhibition at 50 µM on AChE (setting [1]) amounted to 25.4%; at BuChE (setting [2]), 91.3%.

For `CCN(C)CCOc1ccc2c(=O)c(-c3ccc(OC)cc3)coc2c1` [compound 4, 7-(2-(Ethyl(methyl)amino)ethoxy)-3-(4-methoxyphenyl)-4H-chromen-4-one], the results for the inhibition at 50 µM at AChE (setting [1]) and on BuChE (setting [2]) were 58.7% and 84.1%, respectively.

With `COc1ccc(-c2coc3cc(OCCCCN4CCCCC4)ccc3c2=O)cc1` [compound 3, 3-(4-Methoxyphenyl)-7-(4-(piperidin-1-yl)butoxy)-4-H-chromen-4-one], the “Inhibition % at 50 μM AChE” value at AChE (setting [1]) is reported as 85.65%. In addition, the IC50 on AChE (AChE extracted from rat cortex) was 46.4 µM; at BuChE (setting [3]) it was 11.1 µM. Further, on BuChE (setting [2]), the “Inhibition % at 50 μM BuChE” value was 98.11%.

With `CCN(C)CCCCOc1ccc2c(=O)c(-c3ccc(OC)cc3)coc2c1` [compound 6, 7-(4-(Ethyl(methyl)amino)butoxy)-3-(4-methoxyphenyl)-4H-chromen-4-one], the inhibition at 50 µM on AChE (setting [1]) was determined as 63.8%; on BuChE (setting [2]), 94.8%.

Regarding `COc1ccc(-c2coc3cc(OCCNCCc4c[nH]c5ccc(OC)cc45)ccc3c2=O)cc1` [compound 7, 7-(2-((2-(5-Methoxy-1H-indol-3-yl)ethyl)amino)ethoxy)-3-(4-methoxyphenyl)-4H-chr-omen-4-one], at AChE (setting [1]), the “Inhibition % at 50 μM AChE” value is reported as 3.68%. For the same compound, the “Inhibition % at 50 μM BuChE” value on BuChE (setting [2]) came to 45.74%.

As to `COc1ccc(-c2coc3cc(OCCOC(=O)N4CCCCC4)ccc3c2=O)cc1` [compound 19, 2-((3-(4-Methoxyphenyl)-4-oxo-4H-chromen-7-yl)oxy)ethyl piperidine-1-carboxylate], the inhibition at 50 µM at AChE was -11.6%; at BuChE, 53%. The compound also had an IC50 at BuChE of 9.59 µM.

As to `COc1ccc(-c2coc3cc(OCCCNCCc4c[nH]c5ccc(OC)cc45)ccc3c2=O)cc1` [compound 8, 7-(3-((2-(5-Methoxy-1H-indol-3-yl)ethyl)amino)propoxy)-3-(4-methoxyphenyl)-4H-chromen-4-one], the inhibition at 50 µM was 2.42% on AChE (setting [1]) and 60.6% on BuChE (setting [2]). The IC50 at BuChE (setting [3]) was 15.6 µM.

Take `COc1ccc(-c2coc3cc(OCC(=O)N4CCCCC4)ccc3c2=O)cc1` [compound 17, 3-(4-Methoxyphenyl)-7-(2-oxo-2-(piperidin-1-yl)ethoxy)-4H-chromen4-one]: the inhibition at 50 µM was 0.54% on AChE (setting [1]) and -2.83% at BuChE (setting [2]).

Consider `COc1ccc(-c2coc3cc(OCCNC45CC6C[C@@](C)(C4)C[C@](C)(C6)C5)ccc3c2=O)cc1` [compound 13, 7-(2-(((3 R,5 S,7r)-3,5-dimethyladamantan-1-yl)amino)ethoxy)-3-(4-methoxyphenyl)-4H-chromen-4-one], for which the “Inhibition % at 50 μM AChE” value on AChE (setting [1]) is on record as 17.61%. Moreover, the “Inhibition % at 50 μM BuChE” value on BuChE (setting [2]) was −6.62%.

On to `C#CCNC(=O)OCCOc1ccc2c(=O)c(-c3ccc(OC)cc3)coc2c1` [compound 20, 2-((3-(4-Methoxyphenyl)-4-oxo-4H-chromen-7-yl)oxy)ethyl prop-2-yn-1-ylc-arbamate], for which the “Inhibition % at 50 μM AChE” value on AChE (setting [1]) is −4.84%. Moreover, the “Inhibition % at 50 μM BuChE” value at BuChE (setting [2]) is −5.49%.

For `CC(C)NP(=O)(NC(C)C)OP(=O)(NC(C)C)NC(C)C` [Iso-OMPA, tetraisopropyl pyrophosphoramide, reference compound], the inhibition at 50 µM at BuChE amounted to 94.3%.

As for `C#CCNCCOc1ccc2c(=O)c(-c3ccc(OC)cc3)coc2c1` [compound 12, 3-(4-Methoxyphenyl)-7-(2-(prop-2-yn-1-ylamino)ethoxy)-4H-chromen-4-one], the inhibition at 50 µM on AChE (setting [1]) was 5.47%; on BuChE (setting [2]), -16.9%.
